IC50 data for two compounds are collected here from patent publication US10626103B2, “Inhibitor of lysine specific demethylase-1” (CELGENE QUANTICEL RESEARCH, INC., priority 2014, dated 2020).

Each structure is given as a SMILES string.

One assay addresses full-length human LSD1 (Homo sapiens (Human), UniProt O60341). The experiment in a line: In vitro enzyme inhibition assay LSD-1 (TR-FRET). The note with it: H3K4me1-biotin peptide. Type of assay: biochemical. The procedure, abridged:
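Demethylase activity of full-length human LSD1 was detected by TR-FRET after 1 hour incubation at room temperature. Excitation was at 320 nm, with emission at 615 nm and 665 nm. IC50 values were derived from the inhibition data.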

Assay [1] has as its system Kasumi-1 AML cancer cell line. The assay can be described thus: Kasumi-1 AML cell line proliferation assay (Cell-MTS assay). Type of assay: cell-based. The note with it: Homo sapiens, Kasumi-1 cells, 168 hours. An excerpt:
Colorimetric cellular assay to assess the ability of LSD-1 small molecule inhibitors to effect the proliferation of the established AML cancer cell line Kasumi-1.
This Cell-MTS assay is a 7-day plate based colorimetric assay which quantifies the amount of newly generated NADH in the presence and absence of test compound. These NADH levels are used as a proxy for the quantification of cancer cell proliferation.
The established cancer cell line Kasumi-1 with a verified p53 mutation were purchased from American Type Culture Collection (ATCC) and routinely passaged according to ATCC published protocols. For routine assay these cells were seeded at a density of 20,000 cells per 96-well. 24 hours after plating, cells received an 11 point dilution of test compound with final concentration ranges from 100 LM to 2.0 nM. Cells are incubated in the presence of compound for 168 hours at 37° C., 5% CO2. At the end of this compound incubation period, 80 μl of media is removed and 20 μL of CellTiter 96® AQueous Non-Radioactive Cell Proliferation Assay solution (Promega) is added. The cells are incubated until the OD490 is >0.6. IC50 values are calculated using the IDBS XLfit software package and include background subtracted OD490 values and normalization to DMSO controls.
Table 5 provides the Kasumi-1 cellular IC50 values of various substituted heterocyclic compounds disclosed herein.

Assay [2] relates to CD11b expression in THP-1 (AML) cells. The experiment in a line: LSD1 CD11b cellular assay (flow cytometry). In kind it is cell-based. The following applies: Homo sapiens, 96 h, THP-1 cells, 4 days. The procedure, abridged: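 THP-1 cells were exposed to serially diluted compounds (0.2% DMSO final) for 4 days at 37 °C. CD11b expression was measured by flow cytometry with DAPI staining. The percent of CD11b-positive cells per concentration gave the IC50 curve.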

As to `CN[C@@H]1CCCN(C(=O)c2nc(-c3ccc(C#N)c(F)c3)n(-c3ccc(OC)cc3)c2C)C1` [Example 70, 2-Fluoro-4-[1-(4-methoxyphenyl)-5-methyl-4-[(3R)-3-(methylamino)piperidine-1-carbonyl]imidazol-2-yl]benzonitrile], the IC50 was less than 100 nM on full-length human LSD1, no more than 100 nM in assay [1] and less than 100 nM in assay [2].

For the compound `Cc1c(C(=O)N2CC[C@H](N(C)C)C2)nc(-c2ccc(C#N)c(F)c2)n1-c1ccc2nn(C)c(Cl)c2c1` [Example 96, 4-[1-(3-Chloro-2-methylindazol-5-yl)-4-[(3S)-3-(dimethylamino)pyrrolidine-1-carbonyl]-5-methylimidazol-2-yl]-2-fluorobenzonitrile], the figures for the IC50 (on full-length human LSD1; in assay [1]; in assay [2]) were less than 100 nM, no more than 100 nM and less than 100 nM, respectively.
